This note sets out measurements from ChEMBL document CHEMBL5247639, “Fused-ring α-pyrones from intramolecular C-H activation and their lipids-lowering activity associated with LXR-IDOL-LDLR axis regulation” (2022).

SMILES strings stand for the structures. The source made the active and inactive calls. The rule behind the calls is not given here.

In test [1] the test system is HepG2. Kind of test: Inhibition of LXR activity in human HepG2 cells assessed as downregulation of ABCA1 level at 5 uM incubated for 24 hrs by Q-PCR analysis. Type of test: cell-based.
The subject of test [2] is HepG2. Put plainly: Downregulation of LXRalpha protein level in nucleus of human HepG2 at 5 uM incubated for 24 hrs by Western blot analysis. The class given is functional, cell-based.
Test [3] is described as follows: Upregulation of LDLR protein level in human HepG2 cells at 5 uM incubated for 24 hrs by Western blot analysis relative to control. The class given is functional.
In test [4] the test system is HepG2. Put plainly: Induction of LDL uptake in human HepG2 cells at 5 uM incubated for 24 hrs by microplate reader analysis. Type of test: functional, cell-based.
A short description of test [5]: Downregulation of IDOL protein level in human HepG2 cells at 5 uM incubated for 24 hrs by Western blot analysis relative to control. Type of test: functional.
For test [6], the system named is HepG2. Kind of test: Inhibition of LXR activity in human HepG2 cells assessed as downregulation of SREBP-1c level at 5 uM incubated for 24 hrs by Q-PCR analysis. Type of test: cell-based.
For test [7], the system named is Syrian golden hamster. Kind of test: Hypolipidemic activity in high fat diet induced Syrian golden hamster assessed as decrease in triglyceride level at 30 mg/kg,ip administered once daily for 21 days by automatic biochemical analyzer. Type of test: functional, organism-based. The following applies: Mesocricetus auratus, time 21.0 day.
The subject of test [8] is HepG2. Kind of test: Downregulation of IDOL mRNA level in human HepG2 cells at 5 uM incubated for 24 hrs by Q-PCR analysis. The class given is functional, cell-based.
The test system of test [9] is Syrian golden hamster. Put plainly: Hypolipidemic activity in high fat diet induced Syrian golden hamster assessed as decrease in low-density lipoprotein cholesterol level at 30 mg/kg,ip administered once daily for 21 days by automatic biochemical analyzer. The class given is functional, organism-based. The following applies: Mesocricetus auratus, time 21.0 day.
In test [10] the test system is Syrian golden hamster. Put plainly: Hypolipidemic activity in high fat diet induced Syrian golden hamster assessed as decrease in total cholesterol level at 30 mg/kg,ip administered once daily for 21 days by automatic biochemical analyzer. The following applies: Mesocricetus auratus, time 21.0 day. Type of test: functional, organism-based.
Test [11] concerns HepG2. Put plainly: Upregulation of LDLR protein level in human HepG2 cells at 5 uM incubated for 24 hrs by Western blot analysis. Type of test: functional, cell-based.

For `O=c1oc(-c2ccccc2)c2c3c1c1ccccc1n3CCC2`, the inhibition result in test [1] and in test [6] was “Active” throughout. Moreover, the result in test [2], in test [4], in test [7], in [8], in test [9] and in [10] was Active. Besides, the Activity in test [3] is reported as 160%; in test [5], 28%.

For the compound `O=c1cc2c(c(-c3ccc(-c4ccccc4)s3)o1)CCCC2`, the outcome in [4] was Active.

Turning to `O=c1cc2c(c(-c3cc4ccccc4s3)o1)CCCC2`, the outcome in test [4] was Active.

Regarding `O=c1oc(-c2cccs2)c2c3c1c1ccccc1n3CCC2`, the outcome in test [4] was Active.

For the compound `O=c1cc2c(c(-c3cccs3)o1)CCCC2`, the inhibition result in [1] and in test [6] was “Active” each time. Also, the result in test [2], in test [4] and in [8] was Active. The figures for the Activity in test [3] and in test [5] were 238% and 42%, respectively.

`COc1ccccc1-c1oc(=O)cc2c1CCCC2`: the result in test [11] was inactive. Further, in [4], the outcome was Active.

As for `O=c1cc2c(c(-c3ccc(-c4cccs4)s3)o1)CCCC2`, the outcome in [4] was Active.

For the compound `O=c1cc2c(c(-c3cc4ccccc4o3)o1)CCCC2`, the outcome in [4] was Active.
